Measured values reported in US11759461B2, “Small molecule inhibitors of cancer stem cells and mesenchymal cancer types” (The Scripps Research Institute, priority 2017, dated 2023).

The molecules below were run on FOXC2-expressing HMLER cells (assay: Cell Titer Glo viability of FOXC2-HMLER cells (high throughput screen and 10-point response)). Conditions: Homo sapiens; scored relative to parent compound 1; 72 hours; read-out: Activity Score, inhibition of FOXC2-expressing HMLER cells by Formula I compounds.
Format: cell-based
Method: For high throughput screening, FOXC2-HMLER and HMLER cells were plated at 10^3 cells per well in white 384-well plates in 50 μL of MEGM medium (Lonza). Cells were allowed to attach for one hour before compound was transferred to each well as a DMSO solution using a 100 nL pintool head affixed to a PerkinElmer FX instrument. After 72-hour incubation, 30 μL of a Cell Titer Glo solution (diluted 1:6 in water, Promega) was dispensed into each well and luminance values were recorded using an Envision plate reader. […] All other miniaturized, selective viability experiments were performed as above using the indicated growth medium.
More specifically, in the high throughput screening assay above, each cell line was plated at 1,000 cells per well in 384-well plates, treated for 72 hours with 2 μM of test compound, and the viability of each line was determined in parallel by Cell Titer Glo (Promega) luminance measurements.
In the case of `Fc1cccc(N2CCN(c3cnnc4c(Cl)cccc34)CC2)c1` [Compound 1SRO], the IC50 is reported as 1 to 20 µM. `NC(=O)c1cccc(N2CCN(c3cnnc4c(Cl)cccc34)CC2)c1` [Compound 1SRV] showed an IC50 of 1 to 20 µM. With `Clc1cccc2c(N3CCN(c4ccccc4)CC3)cnnc12` [Compound 1SRX] the IC50 was > 20 µM. `Cc1ccc(N2CCN(c3nccn4nc(-c5ccccc5)cc34)CC2)cc1` [Compound 1C] was tested, and the IC50 was 1 to 20 µM. In the case of `Clc1cncc(N2CCN(c3cnnc4c(Cl)cccc34)CC2)n1` [Compound 1SRAF], the IC50 is reported as > 20 µM. With `Clc1cccc(N2CCN(c3cnnc4c(Cl)cccc34)CC2)c1Cl` [Compound 1SRZ] the IC50 was > 20 µM.

Same assay, conditions: Homo sapiens; scored relative to parent compound 2; 72 hours; read-out: Activity Score, inhibition of FOXC2-expressing HMLER cells by Formula II compounds
For `COc1ccc2cc(CNc3ccc(C)cc3)c(=O)n(CC(=O)Nc3ccc(C)c(Cl)c3)c2c1` [Compound 2DR], the IC50 was > 20 µM. For `CCOc1ccc(NC(=O)Cn2c(=O)c(CNc3ccc(C)cc3)cc3cc4c(cc32)OCCO4)cc1` [Compound 2S], the IC50 was 1 to 20 µM. For `Cc1ccc(NCc2cc3cc4c(cc3n(CC(=O)Nc3ccccc3C)c2=O)OCCO4)cc1` [Compound 2AK], the IC50 was 1 to 20 µM. With `COc1ccc(NCc2cc3cc4c(cc3n(CC(=O)Nc3cccc(C)c3)c2=O)OCCO4)cc1` [Compound 2ID] the IC50 was > 20 µM. `COc1ccc(NC(=O)c2ccccc2NC(=O)CN2C(=O)c3ccccc3C2=O)cc1` [Compound 2HM] was tested, and the IC50 was > 20 µM. In the case of `CCc1ccc(NCc2cc3ccc(OC)cc3n(CC(=O)Nc3ccccc3C)c2=O)cc1` [Compound 2CP], the IC50 is reported as > 20 µM. In the case of `COc1cc2cc(CNc3ccccc3)c(=O)n(CC(=O)Nc3cccc(C)c3)c2cc1OC` [Compound 2EH], the IC50 is reported as > 20 µM. In the case of `COc1ccc2cc(CNc3ccc(C)cc3)c(=O)n(CC(=O)Nc3ccc(OC)c(Cl)c3)c2c1` [Compound 2GX], the IC50 is reported as > 20 µM. `COc1ccc2cc(CNc3ccc(C)cc3)c(=O)n(CC(=O)Nc3ccc(C(C)C)cc3)c2c1` [Compound 2ER] was tested, and the IC50 was > 20 µM. With `COc1ccccc1NC(=O)Cn1c(=O)c(CNc2ccccc2)cc2cc3c(cc21)OCCO3` [Compound 2EF] the IC50 was > 20 µM. In the case of `COc1ccc2cc(CNc3ccc(OC)c(OC)c3)c(=O)n(CC(=O)Nc3ccc(C)cc3)c2c1` [Compound 2HW], the IC50 is reported as > 20 µM. For `COc1ccc(NCc2cc3ccc(C)cc3n(CC(=O)Nc3ccc(C)cc3C)c2=O)cc1OC` [Compound 2F], the IC50 was 1 to 20 µM. With `Cc1ccc(NCc2cc3cc4c(cc3n(CC(=O)Nc3ccc(C)cc3C)c2=O)OCCO4)cc1` [Compound 2EY] the IC50 was > 20 µM. In the case of `COc1cc2cc(CNc3ccccc3)c(=O)n(CC(=O)Nc3ccc(C)c(C)c3)c2cc1OC` [Compound 2FE], the IC50 is reported as > 20 µM. In the case of `COc1ccc2cc(CNc3ccccc3)c(=O)n(CC(=O)Nc3cc(F)ccc3F)c2c1` [Compound 2EW], the IC50 is reported as > 20 µM. With `COc1ccc(NC(=O)Cn2c(=O)c(CNc3ccc(C)cc3)cc3ccc(OC)cc32)cc1` [Compound 2EI] the IC50 was > 20 µM. With `COc1ccc2cc(CNc3ccc(C)cc3)c(=O)n(CC(=O)Nc3ccc(F)cc3F)c2c1` [Compound 2DF] the IC50 was > 20 µM. For `COc1ccc2cc(CNc3ccccc3)c(=O)n(CC(=O)Nc3ccc(C)cc3C)c2c1` [Compound 2EN], the IC50 was > 20 µM. `COc1ccc2cc(CNc3ccc(C)cc3)c(=O)n(CC(=O)Nc3ccc4c(c3)OCCO4)c2c1` [Compound 2CE] was tested, and the IC50 was > 20 µM. Work on `CCc1ccccc1NC(=O)Cn1c(=O)c(CNc2ccc(C)cc2)cc2cc3c(cc21)OCCO3` [Compound 2AF] yielded an IC50 of 1 to 20 µM. In the case of `COc1ccc(NCc2cc3ccc(OC)cc3n(CC(=O)Nc3ccccc3)c2=O)cc1` [Compound 2AZ], the IC50 is reported as > 20 µM. With `CCc1ccc(NCc2cc3ccc(OC)cc3n(CC(=O)Nc3ccc(OC)cc3)c2=O)cc1` [Compound 2IL] the IC50 was > 20 µM. With `CCc1ccc(NCc2cc3ccc(OC)cc3n(CC(=O)Nc3c(C)cc(C)cc3C)c2=O)cc1` [Compound 2AO] the IC50 was 1 to 20 µM. With `COc1ccc2cc(CNc3ccccc3)c(=O)n(CC(=O)Nc3cccc(C)c3)c2c1` [Compound 2ED] the IC50 was > 20 µM. In the case of `COc1ccc(NCc2cc3ccc(OC)cc3n(CC(=O)Nc3ccc(C)c(Cl)c3)c2=O)cc1` [Compound 2EO], the IC50 is reported as > 20 µM. In the case of `COc1cc2cc(CNc3ccccc3)c(=O)n(CC(=O)Nc3cccc(Cl)c3)c2cc1OC` [Compound 2IE], the IC50 is reported as > 20 µM. `COc1cc2cc(CNc3ccccc3)c(=O)n(CC(=O)Nc3cc(C)ccc3C)c2cc1OC` [Compound 2X] gave an IC50 of 1 to 20 µM. With `COc1ccc2cc(CNc3ccccc3)c(=O)n(CC(=O)NCCc3ccccc3)c2c1` [Compound 2AX] the IC50 was > 20 µM. `COc1ccc2cc(CNc3ccc(OC)c(OC)c3)c(=O)n(CC(=O)Nc3ccccc3C)c2c1` [Compound 2AW] was tested, and the IC50 was > 20 µM. With `COc1ccc2cc(CNc3ccc(C)cc3)c(=O)n(CC(N)=O)c2c1` [Compound 2FN] the IC50 was > 20 µM. `COc1cc2cc(CNc3ccc(C)cc3)c(=O)n(CC(=O)Nc3ccc(C)cc3)c2cc1OC` [Compound 2FY] was tested, and the IC50 was > 20 µM. With `COc1ccc(NC(=O)Cn2c(=O)c(CNc3ccc(C)cc3)cc3cc4c(cc32)OCCO4)cc1` [Compound 2CR] the IC50 was > 20 µM. In the case of `COc1ccc(NCc2cc3ccc(OC)cc3n(CC(=O)Nc3cc(Cl)ccc3C)c2=O)cc1` [Compound 2FD], the IC50 is reported as > 20 µM. In the case of `CCOC(=O)c1ccc(NC(=O)Cn2c(=O)c(CNc3ccc(C)cc3)cc3ccc(OC)cc32)cc1` [Compound 2GM], the IC50 is reported as > 20 µM. With `COc1ccc(NCc2cc3ccc(C)cc3n(CC(=O)Nc3cc(C)ccc3C)c2=O)cc1OC` [Compound 2L] the IC50 was 1 to 20 µM. For `CCc1ccc(NCc2cc3cc(OC)c(OC)cc3n(CC(=O)Nc3cc(C)ccc3C)c2=O)cc1` [Compound 2I], the IC50 was 1 to 20 µM. `CCc1ccc(NCc2cc3ccc(OC)cc3n(CC(=O)Nc3cccc(F)c3)c2=O)cc1` [Compound 2FO] was tested, and the IC50 was > 20 µM. For `COc1ccc2cc(CNc3ccccc3)c(=O)n(CC(=O)Nc3ccc(C(C)=O)cc3)c2c1` [Compound 2CX], the IC50 was > 20 µM. `COc1ccc2cc(CNc3ccc(C)cc3)c(=O)n(CC(=O)Nc3ccc(C)cc3C)c2c1` [Compound 2AC] showed an IC50 of 1 to 20 µM. With `CCc1cccc(NC(=O)Cn2c(=O)c(CNc3ccc(C)cc3)cc3ccc(OC)cc32)c1` [Compound 2FL] the IC50 was > 20 µM. In the case of `CCc1ccc(NCc2cc3ccc(OC)cc3n(CC(=O)Nc3cccc(Cl)c3)c2=O)cc1` [Compound 2BT], the IC50 is reported as > 20 µM.

Same assay, conditions: Homo sapiens; scored relative to parent compound 3; 72 hours; read-out: Activity Score, inhibition of FOXC2-expressing HMLER cells by Formula III compounds
`Cc1c(C(=O)N2CCN(c3cccc(Cl)c3)CC2)cccc1-n1nnc2cccnc21` [Compound 3B] was tested, and the IC50 was < 1 µM. `Cc1cc(C(=O)N2CCC(C)CC2)ccc1-n1nnc2cccnc21` [Compound 3AQ] was tested, and the IC50 was > 20 µM. `CCCCN(CC)C(=O)c1cccc(-n2nnc3cccnc32)c1` [Compound 3AW] was tested, and the IC50 was > 20 µM. In the case of `O=C(c1cccc(-n2nnc3cccnc32)c1)N1CCN(c2ccccc2)CC1` [Compound 3P], the IC50 is reported as 1 to 20 µM. `Cc1c(C(=O)NCCN(C)C2CCCCC2)cccc1-n1nnc2cccnc21` [Compound 3CF] was tested, and the IC50 was > 20 µM. For `Cc1c(C(=O)NCc2ccc(N(C)C)cc2)cccc1-n1nnc2cccnc21` [Compound 3CG], the IC50 was > 20 µM. In the case of `Cc1ccc(C)c(N2CCN(C(=O)c3ccc(-n4nnc5cccnc54)cc3)CC2)c1` [Compound 3G], the IC50 is reported as 1 to 20 µM. `Cc1ccc(C(=O)N2CCC(Cc3ccccc3)CC2)cc1-n1nnc2cccnc21` [Compound 3Z] gave an IC50 of 1 to 20 µM. `Cc1ccc(C)c(N2CCN(CCCNC(=O)c3ccc(C)c(-n4nnc5cccnc54)c3)CC2)c1` [Compound 3AC] was tested, and the IC50 was 1 to 20 µM. `Cc1c(C(=O)NC2CCN(Cc3ccccc3)CC2)cccc1-n1nnc2cccnc21` [Compound 3BU] was tested, and the IC50 was > 20 µM. In the case of `Cc1c(C(=O)NCCN2CCCC2)cccc1-n1nnc2cccnc21` [Compound 3BY], the IC50 is reported as > 20 µM. With `COc1ccc(N2CCN(C(=O)c3ccc(-n4nnc5cccnc54)c(C)c3)CC2)cc1` [Compound 3AS] the IC50 was > 20 µM. With `Cc1cccc(CNC(=O)c2cccc(-n3nnc4cccnc43)c2C)c1` [Compound 3BQ] the IC50 was > 20 µM. `Cc1ccc(Cl)cc1N1CCN(C(=O)c2cccc(-n3nnc4cccnc43)c2)CC1` [Compound 3E] was tested, and the IC50 was < 1 µM. With `Cc1c(C(=O)N2CCC(N3CCCCC3)CC2)cccc1-n1nnc2cccnc21` [Compound 3BR] the IC50 was > 20 µM. `Cc1cccc(N2CCN(C(=O)c3ccc(-n4nnc5cccnc54)cc3)CC2C)c1` (centres unmarked) [Compound 3I] was tested, and the IC50 was 1 to 20 µM. For `Cc1c(C(=O)N2CCN(c3ccccc3F)CC2)cccc1-n1nnc2cccnc21` [Compound 3BW], the IC50 was > 20 µM. In the case of `Cc1ccc(CN2CCC(CNC(=O)c3cccc(-n4nnc5cccnc54)c3C)CC2)cc1` [Compound 3CA], the IC50 is reported as > 20 µM.

Same assay, conditions: Homo sapiens; scored relative to parent compound 4; 72 hours; read-out: Activity Score, inhibition of FOXC2-expressing HMLER cells by Formula IV compounds
In the case of `Cc1nn(-c2ccc(F)cc2)c(C)c1S(=O)(=O)N1CCN(c2ccc(F)cc2)CC1` [Compound 4AC], the IC50 is reported as > 20 µM. With `Cc1ccc(-n2nc(C)c(S(=O)(=O)N3CCN(c4ccccn4)CC3)c2C)cc1` [Compound 4AF] the IC50 was > 20 µM. With `Cc1c(S(=O)(=O)N2CCN(c3ccc(=O)n(-c4ccc(Cl)cc4)n3)CC2)cnn1C(F)F` [Compound 4AM] the IC50 was > 20 µM. In the case of `Cc1ccc(-c2cc(N3CCN(S(=O)(=O)c4ccccc4C)CC3)ncn2)cc1` [Compound 4E], the IC50 is reported as < 1 µM. With `Cc1cccc(N2CCN(S(=O)(=O)c3c(C)nn(C)c3C)CC2C)c1` (centres unmarked) [Compound 4O] the IC50 was > 20 µM. `Cc1cccc(N2CCN(S(=O)(=O)c3c(C)nn(-c4ccc(-c5ccccc5)nn4)c3C)CC2)c1` [Compound 4AQ] was tested, and the IC50 was > 20 µM. Molecule `Cc1ccc(-n2nc(C)c(S(=O)(=O)N3CCN(c4ncccn4)CC3)c2C)cc1` [Compound 4M] has an IC50 of 1 to 20 µM. With `Cc1ccc(-c2ccc(-n3nc(C)c(S(=O)(=O)N4CCN(C(C)C)CC4)c3C)nn2)cc1` [Compound 4AU] the IC50 was > 20 µM. For `Cc1nn(C)c(C)c1S(=O)(=O)N1CCN(c2ccccc2F)CC1` [Compound 4P], the IC50 was > 20 µM.
